Assay results reported in PMC5564600 (Oncotarget, 2017).

Assays:
Assay in all cases: biochemical
Assay type in all cases: binding
[1] = target: T1, panel of 442 kinases (Homo sapiens, UniProt Q96RR4); conditions: CAMKK2; for remaining activity at 1 µM: read-out: % of control at 1 µM
T1 construct: purchased Ambit Biosciences (scanMAXX KINOMEscan)

[2] = target: T2, panel of 442 kinases (Homo sapiens, UniProt Q56UN5); conditions: kinase YSK4; for remaining activity at 1 µM: read-out: YSK4 (% of control at 1 µM)
T2 construct: purchased Ambit Biosciences (scanMAXX KINOMEscan)
T2 sequence (Q56UN5 1-1328): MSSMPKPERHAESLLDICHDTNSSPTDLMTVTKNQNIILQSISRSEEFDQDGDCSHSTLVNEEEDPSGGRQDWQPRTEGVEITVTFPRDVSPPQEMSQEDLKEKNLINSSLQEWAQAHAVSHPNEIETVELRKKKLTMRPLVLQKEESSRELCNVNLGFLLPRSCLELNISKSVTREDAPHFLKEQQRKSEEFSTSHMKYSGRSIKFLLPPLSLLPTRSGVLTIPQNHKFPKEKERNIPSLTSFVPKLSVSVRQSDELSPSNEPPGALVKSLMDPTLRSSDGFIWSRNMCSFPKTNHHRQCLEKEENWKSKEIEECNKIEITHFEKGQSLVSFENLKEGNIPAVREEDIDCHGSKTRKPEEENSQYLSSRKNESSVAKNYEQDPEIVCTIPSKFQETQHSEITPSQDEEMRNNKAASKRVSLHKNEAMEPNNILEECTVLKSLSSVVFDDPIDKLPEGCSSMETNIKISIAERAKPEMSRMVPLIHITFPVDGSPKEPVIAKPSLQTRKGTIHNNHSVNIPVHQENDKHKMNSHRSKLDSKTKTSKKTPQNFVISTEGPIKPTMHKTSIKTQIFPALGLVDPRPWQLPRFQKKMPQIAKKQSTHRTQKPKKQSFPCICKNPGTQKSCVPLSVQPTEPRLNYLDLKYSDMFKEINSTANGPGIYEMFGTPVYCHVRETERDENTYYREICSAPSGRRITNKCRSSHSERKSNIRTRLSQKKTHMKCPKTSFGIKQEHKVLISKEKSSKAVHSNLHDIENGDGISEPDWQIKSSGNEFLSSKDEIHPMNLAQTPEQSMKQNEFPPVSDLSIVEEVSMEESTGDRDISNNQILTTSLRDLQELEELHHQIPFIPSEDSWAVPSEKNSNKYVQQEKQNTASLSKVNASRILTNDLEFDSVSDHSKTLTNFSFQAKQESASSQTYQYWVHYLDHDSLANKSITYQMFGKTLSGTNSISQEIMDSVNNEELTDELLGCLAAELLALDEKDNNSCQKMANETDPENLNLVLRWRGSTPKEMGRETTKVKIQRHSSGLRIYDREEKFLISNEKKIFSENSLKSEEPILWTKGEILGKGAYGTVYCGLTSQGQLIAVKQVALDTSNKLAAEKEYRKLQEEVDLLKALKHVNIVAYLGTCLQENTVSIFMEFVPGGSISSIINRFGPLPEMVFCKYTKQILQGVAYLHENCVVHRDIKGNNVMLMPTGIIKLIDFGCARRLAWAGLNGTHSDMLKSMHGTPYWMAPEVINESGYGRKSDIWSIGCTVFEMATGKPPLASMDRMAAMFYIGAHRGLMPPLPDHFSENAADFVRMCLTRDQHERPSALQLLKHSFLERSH

[3] = target: T3, panel of 442 kinases (Homo sapiens, UniProt Q9BWU1); conditions: CDK11; for remaining activity at 1 µM: read-out: % of control at 1 µM
T3 construct: purchased Ambit Biosciences (scanMAXX KINOMEscan)
T3 sequence (Q9BWU1 whole entry): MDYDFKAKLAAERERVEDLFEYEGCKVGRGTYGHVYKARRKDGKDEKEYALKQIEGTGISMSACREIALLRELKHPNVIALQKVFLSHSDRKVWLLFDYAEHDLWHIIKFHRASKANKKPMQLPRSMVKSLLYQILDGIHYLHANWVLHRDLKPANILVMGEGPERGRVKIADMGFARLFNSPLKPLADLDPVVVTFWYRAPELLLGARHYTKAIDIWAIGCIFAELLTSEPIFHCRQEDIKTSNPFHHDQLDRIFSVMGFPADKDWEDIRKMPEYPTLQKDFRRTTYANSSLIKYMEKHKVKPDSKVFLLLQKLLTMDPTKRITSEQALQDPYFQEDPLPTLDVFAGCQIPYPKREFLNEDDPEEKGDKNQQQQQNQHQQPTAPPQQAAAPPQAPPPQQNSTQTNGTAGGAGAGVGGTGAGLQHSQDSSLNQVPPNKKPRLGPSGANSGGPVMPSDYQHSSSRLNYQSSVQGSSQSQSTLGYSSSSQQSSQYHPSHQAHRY

[4] = target: T4, panel of 442 kinases (Homo sapiens, UniProt Q13464); conditions: kinase ROCK1; for remaining activity at 1 µM: read-out: ROCK1 (% of control at 1 µM)
T4 construct: purchased Ambit Biosciences (scanMAXX KINOMEscan)
T4 sequence (Q13464 whole entry): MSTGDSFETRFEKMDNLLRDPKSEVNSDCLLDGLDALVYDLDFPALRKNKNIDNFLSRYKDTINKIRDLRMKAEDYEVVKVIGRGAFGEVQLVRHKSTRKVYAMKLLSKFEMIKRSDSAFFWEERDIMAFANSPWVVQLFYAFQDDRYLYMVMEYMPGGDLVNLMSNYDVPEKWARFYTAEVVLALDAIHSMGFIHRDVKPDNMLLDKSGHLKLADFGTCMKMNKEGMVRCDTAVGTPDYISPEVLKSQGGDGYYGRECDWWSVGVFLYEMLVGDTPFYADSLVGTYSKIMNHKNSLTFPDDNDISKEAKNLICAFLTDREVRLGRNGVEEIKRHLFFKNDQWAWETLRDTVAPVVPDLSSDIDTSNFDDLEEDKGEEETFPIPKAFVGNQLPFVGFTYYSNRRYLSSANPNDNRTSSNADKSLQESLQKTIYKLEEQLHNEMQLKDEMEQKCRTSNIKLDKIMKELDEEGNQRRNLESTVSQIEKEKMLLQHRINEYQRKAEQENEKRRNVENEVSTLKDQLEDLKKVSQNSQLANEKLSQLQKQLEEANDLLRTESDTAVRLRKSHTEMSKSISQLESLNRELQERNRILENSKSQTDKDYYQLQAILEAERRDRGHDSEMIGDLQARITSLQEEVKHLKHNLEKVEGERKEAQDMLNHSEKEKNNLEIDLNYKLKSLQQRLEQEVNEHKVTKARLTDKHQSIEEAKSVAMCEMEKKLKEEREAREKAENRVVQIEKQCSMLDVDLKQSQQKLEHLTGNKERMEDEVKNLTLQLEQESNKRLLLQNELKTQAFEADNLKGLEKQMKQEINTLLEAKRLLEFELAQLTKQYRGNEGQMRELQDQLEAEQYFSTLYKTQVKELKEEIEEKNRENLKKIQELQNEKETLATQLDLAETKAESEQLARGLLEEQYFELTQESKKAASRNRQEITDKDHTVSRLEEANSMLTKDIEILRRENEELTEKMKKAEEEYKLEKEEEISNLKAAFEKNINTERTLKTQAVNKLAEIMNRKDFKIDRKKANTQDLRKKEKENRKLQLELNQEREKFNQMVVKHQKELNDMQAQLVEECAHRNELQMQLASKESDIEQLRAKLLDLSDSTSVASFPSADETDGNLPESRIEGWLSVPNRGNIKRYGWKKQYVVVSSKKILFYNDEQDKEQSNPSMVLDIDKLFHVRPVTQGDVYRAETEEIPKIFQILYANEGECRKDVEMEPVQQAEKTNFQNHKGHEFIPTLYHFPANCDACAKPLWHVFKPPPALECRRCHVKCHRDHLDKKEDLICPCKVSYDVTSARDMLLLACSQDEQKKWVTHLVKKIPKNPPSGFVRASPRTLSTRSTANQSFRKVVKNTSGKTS

[5] = target: T5, panel of 442 kinases (Homo sapiens, UniProt P07949, V804M); conditions: kinase RET(V804M); for remaining activity at 1 µM: read-out: RET(V804M) (% of control at 1 µM)
T5 construct: purchased Ambit Biosciences (scanMAXX KINOMEscan)
T5 sequence (P07949 29-1114 V804M): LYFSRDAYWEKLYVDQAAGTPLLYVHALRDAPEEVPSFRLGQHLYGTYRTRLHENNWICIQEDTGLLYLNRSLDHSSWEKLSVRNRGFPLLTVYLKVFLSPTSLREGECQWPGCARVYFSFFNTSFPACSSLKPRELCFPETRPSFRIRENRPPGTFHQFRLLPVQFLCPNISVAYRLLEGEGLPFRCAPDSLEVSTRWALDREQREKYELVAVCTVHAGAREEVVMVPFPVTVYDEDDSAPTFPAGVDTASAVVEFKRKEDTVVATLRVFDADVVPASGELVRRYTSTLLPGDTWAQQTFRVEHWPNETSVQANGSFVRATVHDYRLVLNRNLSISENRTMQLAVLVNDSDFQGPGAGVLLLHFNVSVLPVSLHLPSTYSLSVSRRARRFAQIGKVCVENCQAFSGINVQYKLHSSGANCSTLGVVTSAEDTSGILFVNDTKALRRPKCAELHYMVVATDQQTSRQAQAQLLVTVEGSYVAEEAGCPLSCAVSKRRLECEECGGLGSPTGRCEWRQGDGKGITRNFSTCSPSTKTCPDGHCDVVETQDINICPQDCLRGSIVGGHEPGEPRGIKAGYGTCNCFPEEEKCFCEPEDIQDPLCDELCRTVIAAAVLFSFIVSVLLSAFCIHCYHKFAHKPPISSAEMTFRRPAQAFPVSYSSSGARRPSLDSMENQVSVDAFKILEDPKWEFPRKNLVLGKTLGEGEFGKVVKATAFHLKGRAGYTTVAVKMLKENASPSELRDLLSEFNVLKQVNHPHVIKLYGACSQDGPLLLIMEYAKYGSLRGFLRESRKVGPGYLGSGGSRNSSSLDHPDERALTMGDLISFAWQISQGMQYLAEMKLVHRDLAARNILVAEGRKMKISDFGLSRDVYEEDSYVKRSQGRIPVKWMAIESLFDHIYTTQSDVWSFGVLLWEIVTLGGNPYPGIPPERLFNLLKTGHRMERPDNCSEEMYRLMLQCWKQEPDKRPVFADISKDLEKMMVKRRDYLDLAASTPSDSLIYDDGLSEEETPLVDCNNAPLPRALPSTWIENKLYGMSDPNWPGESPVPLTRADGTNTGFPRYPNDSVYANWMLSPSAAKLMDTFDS

[6] = target: T6, panel of 442 kinases (Homo sapiens, UniProt P10721, D816V); conditions: kinase KIT(D816V), second of two lines so named (r207); for remaining activity at 1 µM: read-out: % of control at 1 µM
T6 construct: purchased Ambit Biosciences (scanMAXX KINOMEscan)
T6 sequence (P10721 26-976 D816V): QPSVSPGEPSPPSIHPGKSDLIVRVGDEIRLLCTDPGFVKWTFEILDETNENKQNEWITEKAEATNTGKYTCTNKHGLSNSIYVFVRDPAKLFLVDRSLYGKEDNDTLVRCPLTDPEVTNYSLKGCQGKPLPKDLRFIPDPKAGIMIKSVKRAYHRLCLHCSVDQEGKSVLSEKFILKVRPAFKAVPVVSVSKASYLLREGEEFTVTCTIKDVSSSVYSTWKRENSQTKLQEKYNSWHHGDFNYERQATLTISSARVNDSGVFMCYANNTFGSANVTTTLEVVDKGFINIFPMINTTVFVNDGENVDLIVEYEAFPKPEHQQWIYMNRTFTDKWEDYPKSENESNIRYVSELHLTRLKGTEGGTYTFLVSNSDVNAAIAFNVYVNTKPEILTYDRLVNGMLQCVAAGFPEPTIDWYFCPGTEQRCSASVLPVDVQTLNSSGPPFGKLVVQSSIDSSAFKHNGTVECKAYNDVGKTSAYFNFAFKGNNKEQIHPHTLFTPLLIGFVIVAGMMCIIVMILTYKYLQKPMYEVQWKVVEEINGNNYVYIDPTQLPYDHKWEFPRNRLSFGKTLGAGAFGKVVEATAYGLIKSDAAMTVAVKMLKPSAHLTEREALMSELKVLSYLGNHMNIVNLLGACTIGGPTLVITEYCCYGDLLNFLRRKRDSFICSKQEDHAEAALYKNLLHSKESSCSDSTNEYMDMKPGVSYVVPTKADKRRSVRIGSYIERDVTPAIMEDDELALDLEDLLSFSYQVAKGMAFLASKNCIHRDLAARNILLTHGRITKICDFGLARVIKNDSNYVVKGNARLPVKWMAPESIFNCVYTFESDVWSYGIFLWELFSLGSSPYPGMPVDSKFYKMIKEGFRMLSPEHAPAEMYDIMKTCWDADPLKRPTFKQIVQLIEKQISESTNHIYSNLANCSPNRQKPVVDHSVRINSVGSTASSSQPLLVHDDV

[7] = target: T7, panel of 442 kinases (Homo sapiens, UniProt Q9UPZ9); conditions: kinase ICK; for remaining activity at 1 µM: read-out: % of control at 1 µM
T7 construct: purchased Ambit Biosciences (scanMAXX KINOMEscan)
T7 sequence (Q9UPZ9 1-632): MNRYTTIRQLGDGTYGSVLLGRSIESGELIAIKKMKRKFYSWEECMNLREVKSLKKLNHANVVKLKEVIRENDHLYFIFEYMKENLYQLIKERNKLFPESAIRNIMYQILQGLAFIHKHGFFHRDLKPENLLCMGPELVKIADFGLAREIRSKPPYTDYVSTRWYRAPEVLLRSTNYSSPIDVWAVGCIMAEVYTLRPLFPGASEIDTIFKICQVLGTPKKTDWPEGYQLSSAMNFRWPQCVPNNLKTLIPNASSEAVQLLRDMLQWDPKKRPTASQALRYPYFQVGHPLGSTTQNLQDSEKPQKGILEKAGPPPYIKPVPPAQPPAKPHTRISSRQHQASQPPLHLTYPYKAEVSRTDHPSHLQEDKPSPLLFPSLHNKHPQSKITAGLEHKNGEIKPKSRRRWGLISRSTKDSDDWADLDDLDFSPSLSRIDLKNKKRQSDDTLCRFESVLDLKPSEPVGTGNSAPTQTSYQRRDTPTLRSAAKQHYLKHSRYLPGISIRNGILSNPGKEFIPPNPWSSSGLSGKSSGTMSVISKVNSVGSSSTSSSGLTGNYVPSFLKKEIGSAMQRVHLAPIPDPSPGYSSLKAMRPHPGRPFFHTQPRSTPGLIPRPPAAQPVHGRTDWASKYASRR

[8] = 10 µM, read-out: % of control at 10 µM

T1 sequence (Q96RR4 whole entry): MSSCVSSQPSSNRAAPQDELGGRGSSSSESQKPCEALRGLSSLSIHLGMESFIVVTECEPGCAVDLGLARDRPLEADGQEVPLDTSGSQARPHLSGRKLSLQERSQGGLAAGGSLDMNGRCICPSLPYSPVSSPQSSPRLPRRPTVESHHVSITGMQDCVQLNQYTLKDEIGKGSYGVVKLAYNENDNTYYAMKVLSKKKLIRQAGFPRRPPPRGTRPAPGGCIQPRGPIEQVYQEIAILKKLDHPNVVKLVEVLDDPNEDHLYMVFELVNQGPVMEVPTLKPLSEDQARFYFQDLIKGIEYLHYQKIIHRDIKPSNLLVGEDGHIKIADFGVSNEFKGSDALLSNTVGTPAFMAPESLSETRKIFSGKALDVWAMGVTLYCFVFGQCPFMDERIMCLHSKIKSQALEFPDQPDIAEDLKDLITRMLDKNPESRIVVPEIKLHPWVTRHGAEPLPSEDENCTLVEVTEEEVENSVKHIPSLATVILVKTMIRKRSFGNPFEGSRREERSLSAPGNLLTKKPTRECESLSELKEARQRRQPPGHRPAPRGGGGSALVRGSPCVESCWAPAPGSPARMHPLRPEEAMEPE

Compound | remaining activity at 1 µM [1] | remaining activity at 10 µM [1, 8] | remaining activity at 1 µM [2] | remaining activity at 10 µM ([2]; 10 µM, read-out: YSK4 (% of control at 10 µM)) | remaining activity at 1 µM [3] | remaining activity at 10 µM [3, 8] | remaining activity at 1 µM [4] | remaining activity at 10 µM ([4]; 10 µM, read-out: ROCK1 (% of control at 10 µM)) | remaining activity at 1 µM [5] | remaining activity at 10 µM ([5]; 10 µM, read-out: RET(V804M) (% of control at 10 µM)) | remaining activity at 1 µM [6] | remaining activity at 10 µM [6, 8] | remaining activity at 1 µM [7] | remaining activity at 10 µM [7, 8]
Nc1cc(C(F)(F)F)c(-c2cc(N3CCOCC3)nc(N3CCOCC3)n2)cn1 [Buparlisib] | 100% | 100% | 72% | 78% | 100% | 98% | 86% | 80% | 97% | 100% | 100% | 100% | 92% | 100%
Cn1c(=O)n(-c2ccc(C(C)(C)C#N)cc2)c2c3cc(-c4cnc5ccccc5c4)ccc3ncc21 [Dactolisib, 2-methyl-2-[4-(3-methyl-2-oxo-8-quinolin-3-yl-2,3-dihydroimidazo[4,5-c]quinolin-1-yl)-phenyl] propionitrile] | 52% |  | 28% |  | 88% |  | 52% |  |  |  | 59% |  | 68% | 
COc1ncc(-c2ccc3nccc(-c4ccnnc4)c3c2)cc1NS(=O)(=O)c1ccc(F)cc1F [Omipalisib] | 71% |  | 77% |  | 64% |  | 88% |  | 90% |  | 86% |  | 87% | 
FC(F)c1nc2ccccc2n1-c1nc(N2CCOCC2)nc(N2CCOCC2)n1 [ZSTK474, 2-(difluoromethyl)-1-[4,6-di(4-morpholinyl)-1,3,5-triazin-2-yl]-1H-benzimidazole] | 100% |  | 100% |  | 88% |  | 75% |  | 100% |  | 100% |  | 89% | 
